Here are results for 19 molecules from patent publication US8853206B2, “Triazolium salts as PAR1 inhibitors, production thereof, and use as medicaments” (Sanofi, priority 2008, dated 2014).

Structures can show the parent of a compound that is named as a salt.

The target of assay [1] is T1, PAR1 (Homo sapiens (Human), UniProt P25116). Briefly: PAR1 binding test (radioligand displacement, membrane preparation). Conditions: human PAR1 expressed in High Five insect cell membranes; radioligand 20 nM; read-out: Inhibition of binding IC50. How it is done: The synthesized substances were examined in a PAR1 binding test. This tested whether the substances can inhibit the binding of a radioactively labeled PAR1 agonist known from the literature at the PAR1 receptor (Ho-Sam Ahn, Mol Pharm, 51:350-356, 1997).
T1 sequence (P25116 22-425): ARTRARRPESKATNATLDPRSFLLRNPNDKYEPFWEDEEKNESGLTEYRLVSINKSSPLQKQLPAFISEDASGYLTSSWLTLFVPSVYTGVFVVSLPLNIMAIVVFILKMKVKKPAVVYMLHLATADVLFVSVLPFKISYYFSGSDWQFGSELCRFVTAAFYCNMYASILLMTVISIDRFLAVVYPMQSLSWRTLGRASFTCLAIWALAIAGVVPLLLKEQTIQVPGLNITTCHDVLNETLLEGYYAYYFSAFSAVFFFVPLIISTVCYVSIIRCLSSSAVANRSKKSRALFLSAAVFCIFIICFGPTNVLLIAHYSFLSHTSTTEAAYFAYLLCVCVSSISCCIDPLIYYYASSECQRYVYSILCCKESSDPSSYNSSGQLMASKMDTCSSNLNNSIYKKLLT
The human PAR1 receptor was expressed transiently in High Five insect cells. From these cells, after 48 hours, a membrane preparation was produced by standard methods, aliquoted into 10 mM Tris-HCl; 0.3 mM EDTA; 1 mM EGTA; 250 mM sucrose pH 7.5, and stored at −80° C.
The substances were preincubated with the membrane at RT for 15 minutes, then the radioligand (ALA-(para-F-Phe)-Arg-ChA-homoArg-(3,4-^3H-Tyr)-NH2; approx. 40 Ci/mMol) was added. The end concentration of the radioligand in the test buffer (50 mM Tris-HCl; 10 mM MgCl2; 1 mM EGTA; 0.1% BSA; 2% DMSO) was 20 nM, that of the membrane 1 mg/ml. After an incubation time of 60 minutes, 25 μL of the mixture were transferred to a 96-well MultiScreenHTS FB microtiter filtration plate (from Millipore), which had been pretreated beforehand with a 0.75% aqueous polyethyleneimine solution for 5 hours at RT. Thereafter, with vacuum extraction, each well was washed four times with 300 μL of buffer (50 mM Tris-HCl; 10 mM MgCl2; 1 mM EGTA). The plate was then dried overnight, 100 μl of scintillator per well were added, and the plate was analyzed after 6 hours in a Wallac MicroBeta (from PerkinElmer) liquid scintillation counter. The nonspecific binding was determined in the presence of 100 μM SCH79797 (PAR-1 antagonist; from Tocris, Cat. No. 1592) and subtracted from all measurements. The 100% value used was a control without inhibitor. The % inhibition values of a substance dilution series were used to calculate the IC50 with the aid of nonlinear regression analysis according to the 4-parameter equation.

Assay [2] concerns the target T1, PAR1. Briefly: Inhibition of PAR1-mediated platelet aggregation induced by TRAP. Format: cell-based. To be noted: TRAP-induced aggregation of washed platelets from healthy volunteer donors, 96-well format. How it is done:
PAR1 Determination Method: Inhibition of PAR1-Mediated Platelet Aggregation The pharmacological testing of the substances took place in platelet aggregation induced by TRAP (thrombin receptor-activating peptide) in 96-well format. For this purpose, blood was taken from healthy volunteer donors in 20 ml syringes containing 2 ml of 3.13% sodium citrate solution. After centrifugation at 150×g for 20 minutes, the platelet-rich plasma (PRP) was separated off and mixed with 1 μl of PGE1 solution (500 μg/ml in ethanol)/ml of PRP. Incubation at RT for 5 minutes was followed by centrifugation at 120×g for 15 minutes to remove the leukocytes. The leukocyte-free PRP was transferred in 5 ml portions into 15 ml PP tubes and centrifuged at 360×g for 15 minutes in order to pellet the platelets. The plasma was then decanted off and the platelet sediment from 5 ml of PRP was resuspended in 1 ml of Tyrode's (120 mM NaCl, 2.6 mM KCl, 12 mM NaHCO3, 0.39 mM NaH2PO4×H2O, 10 mM HEPES, 0.35% BSA, 5.5 mM glucose, pH 7.4) and adjusted with Tyrode's to a platelet count of 3×10^5/microliter (4). 13 ml of this cell suspension were then mixed with 866 μL of 10 mM CaCl2 solution, and 120 μL thereof were pipetted into each well of a 96-well plate containing 15 μL of the substance to be tested. After incubation at RT in the dark for 30 minutes, 15 μL of a TRAP solution (70-100 μM) were added as agonist, and kinetics were recorded at 650 nm in a SpectraMax 340 at 37° C. for 20 minutes while shaking. The areas under the curves of negative control (Tyrode's/DMSO) and positive control (15 μl of agonist/DMSO) were calculated and the difference was fixed as the 100% value. The substances to be tested were pipetted as serial dilutions in duplicate determination, the AUC was likewise determined for each substance concentration, and the % inhibition of the AUC compared with the control was calculated. On the basis of the % inhibition, the IC50 was calculated by nonlinear regression analysis according to the 4-parameter equation.

What is called IC50 is the point on the concentration scale where inhibition reaches its midpoint. For the molecule `CCOc1nn2c(N)n[n+](CC(=O)c3cc(OCCCO)c(OC)c(C(C)(C)C)c3)c2cc1CC` [Example 82, 3-Amino-1-{2-[3-tert-butyl-5-(3-hydroxypropoxy)-4-methoxyphenyl]-2-oxoethyl}-6-ethoxy-7-ethyl-[1,2,4]triazolo[4,3-b]pyridazin-1-ium chloride], the IC50 at PAR1 [1] came out at 8400 nM.

`COc1c(N2CCOCC2)cc(C(=O)C[n+]2nc(N)n3cc(C(F)(F)F)ccc32)cc1C(C)(C)C` [Example 4, 3-Amino-1-[2-(3-tert-butyl-4-methoxy-5-morpholin-4-ylphenyl)-2-oxoethyl]-6-trifluoromethyl-[1,2,4]triazolo[4,3-a]pyridin-1-ium trifluoroacetate] came in with a 50% inhibitory concentration (IC50) against PAR1 [2] of 126 nM.

As to `CCC(CC)Oc1ccc2n(n1)c(N)n[n+]2CC(=O)c1cc(OC)cc(C(C)C)c1` [Example 46, 3-Amino-6-(1-ethylpropoxy)-1-]2-(3-isopropyl-5-methoxyphenyl)-2-oxoethyl]-[1,2,4]triazolo[4,3-b]pyridazin-1-ium chloride], the half-inhibitory concentration (IC50) on PAR1 [1] was 114 nM.

`CCC(CC)Oc1ccc2n(n1)c(N)n[n+]2CC(=O)c1cc(OC)cc(S(F)(F)(F)(F)F)c1` [Example 26, 3-Amino-6-(1-ethylpropoxy)-1-{2-[3-methoxy-5-(pentafluorosulfanyl)phe-nyl]-2-oxoethyl}-[1,2,4]triazolo[4,3-b]pyridazin-1-ium trifluoroacetate] came in with an IC50 against PAR1 [2] of 5 nM.

In the case of `CCOc1cc(C(=O)C[n+]2nc(N)n3nc(OC(CC)CC)ccc32)cc(C(C)(C)C)c1` [Example 32, 3-Amino-1-[2-(3-tert-butyl-5-ethoxyphenyl)-2-oxoethyl]-6-(1-ethylpropoxy)-[1,2,4]triazolo[4,3-b]pyridazin-1-ium chloride], on PAR1 [2], half-maximal inhibition (IC50) required 6 nM.

As for `CCOc1cc(C(=O)C[n+]2nc(N)n3nc(OC(CC)CC)ccc32)cc(C(C)(C)C)c1OCC` [Example 29, 3-Amino-1-[2-(3-tert-butyl-4,5-diethoxyphenyl)-2-oxoethyl]-6-(1-ethylpropoxy)-[1,2,4]triazolo[4,3-b]pyridazin-1-ium chloride], on PAR1 [1], the IC50 is 136 nM.

Take `CCOc1ccc2n(n1)c(N)n[n+]2CC(=O)c1cc(NC(C)=O)cc(S(F)(F)(F)(F)F)c1` [Example 1, 1-{2-[3-Acetylamino-5-(pentafluorosulfanyl)phenyl]-2-oxoethyl}-3-amino-6-ethoxy-[1,2,4]triazolo[4,3-b]pyridazin-1-ium trifluoroacetate]: the half-maximal inhibitory concentration (IC50) against PAR1 [2] was < 14 nM.

As to `CCC(CC)Oc1ccc2n(n1)c(N)n[n+]2CC(=O)c1cc(OCCOC)cc(C(C)(C)C)c1` [Example 54, 3-Amino-1-{2-[3-tert-butyl-5-(2-methoxyethoxy)phenyl]-2-oxoethyl}-6-(1-ethylpropoxy)-[1,2,4]triazolo[4,3-b]pyridazin-1-ium chloride], the concentration for half-maximal inhibition (IC50) at PAR1 [1] amounted to 85 nM.

As for `CCC(CC)Oc1ccc2n(n1)c(N)n[n+]2CC(=O)c1cc(OC)cc(OCC2CCCCC2)c1` [Example 47, 3-Amino-1-[2-(3-cyclohexylmethoxy-5-methoxyphenyl)-2-oxoethyl]-6-(1-ethylpropoxy)-[1,2,4]triazolo[4,3-b]pyridazin-1-ium chloride], the 50% inhibitory concentration (IC50) on PAR1 [1] came out at 10000 nM.

As for `CCC(CC)Oc1nn2c(N)n[n+](CC(=O)c3cc(N4CCOCC4)c(OC)c(C(C)(C)C)c3)c2cc1C1CC1` [Example 76, 3-Amino-1-[2-(3-tert-butyl-4-methoxy-5-morpholin-4-ylphenyl)-2-oxoethyl]-7-cyclopropyl-6-(1-ethylpropoxy)-[1,2,4]triazolo[4,3-b]pyridazin-1-ium chloride], at PAR1 [1], the IC50 is 1400 nM.

Consider `CCOCc1cc(C(=O)C[n+]2nc(N)n3nc(OC(CC)CC)ccc32)cc(C(C)(C)C)c1` [Example 27, 3-Amino-1-[2-(3-tert-butyl-5-ethoxymethylphenyl)-2-oxoethyl]-6-(1-ethylpropoxy)-[1,2,4]triazolo[4,3-b]pyridazin-1-ium chloride], for which the IC50 on PAR1 [1] worked out at 152 nM.

On to `CC(C)(C)c1cc(C(=O)C[n+]2nc(N)n3ccccc32)cc(C(C)(C)C)c1O` [Example 3, 3-Amino-1-[2-(3,5-di-tert-butyl-4-hydroxyphenyl)-2-oxoethyl]-[1,2,4]triazolo[4,3-a]pyridin-1-ium trifluoroacetate], for which the IC50 against PAR1 [2] was determined as 1080 nM.

On PAR1 [2], `CCCCOc1ccc2n(n1)c(N)n[n+]2CC(=O)c1cc(COC)cc(C(C)(C)C)c1` [Example 39, 3-Amino-6-butoxy-1-[2-(3-tert-butyl-5-methoxymethylphenyl)-2-oxoethyl]-[1,2,4]triazolo[4,3-b]pyridazin-1-ium chloride] yielded a concentration for half-maximal inhibition (IC50) of 37 nM.

For `CCc1ccc2n(n1)c(N)n[n+]2CC(=O)c1cc(N2CCOCC2)c(OC)c(C(C)(C)C)c1` [Example 60, 3-Amino-1-[2-(3-tert-butyl-4-methoxy-5-morpholin-4-ylphenyl)-2-oxoethyl]-6-ethyl-[1,2,4]triazolo[4,3-b]pyridazin-1-ium trifluoroacetate], at PAR1 [1], the IC50 was 2100 nM.

Consider `CCC(CC)Oc1ccc2n(n1)c(N)n[n+]2CC(=O)c1cc(OC)c(OC)c(OCC2CCCCC2)c1` [Example 38, 3-Amino-1-[2-(3-cyclohexylmethoxy-4,5-dimethoxyphenyl)-2-oxoethyl]-6-(1-ethylpropoxy)-[1,2,4]triazolo[4,3-b]pyridazin-1-ium chloride], for which, at PAR1 [2], the IC50 amounted to 240 nM.

Regarding `CCOc1nn2c(NC)n[n+](CC(=O)c3cc(N4CCOCC4)c(OC)c(C(C)(C)C)c3)c2c(C)c1C` [Example 72, 1-[2-(3-tert-Butyl-4-methoxy-5-morpholin-4-ylphenyl)-2-oxoethyl]-6-ethoxy-7,8-dimethyl-3-methylamino-[1,2,4]triazolo[4,3-b]pyridazin-1-ium trifluoroacetate], the concentration for half-maximal inhibition (IC50) at PAR1 [1] is 1700 nM.

In the case of `CCC(CC)Oc1ccc2n(n1)c(N)n[n+]2CC(=O)c1cc(OCC2CC2)cc(C(C)(C)C)c1` [Example 35, 3-Amino-1-[2-(3-tert-butyl-5-cyclopropylmethoxyphen-yl)-2-oxoethyl]-6-(1-ethylpropoxy)-[1,2,4]triazolo[4,3-b]pyridazin-1-ium chloride], the 50% inhibitory concentration (IC50) on PAR1 [1] was found to be 132 nM.

As to `CCC(CC)Oc1ccc2n(n1)c(N)n[n+]2CC(=O)c1cc(Cl)cc(OC)c1` [Example 40, 3-Amino-1-[2-(3-chloro-5-methoxyphenyl)-2-oxoethyl]-6-(1-ethylpropoxy)-[1,2,4]triazolo[4,3-b]pyridazin-1-ium chloride], at PAR1 [1], the 50% inhibitory concentration (IC50) turned out to be 601 nM.

As to `CCOC(=O)c1cn2c(N)n[n+](CC(=O)c3cc(N4CCOCC4)c(OC)c(C(C)(C)C)c3)c2cc1OCC` [Example 8, 3-Amino-1-[2-(3-tert-butyl-4-methoxy-5-morpholin-4-yl-phenyl)-2-oxoethyl]-7-ethoxy-6-ethoxycarbonyl-[1,2,4]triazolo[4,3-a]pyridin-1-ium trifluoroacetate], the IC50 on PAR1 [2] is 4400 nM.
